Results: PubChem BioAssay (NCI)
Where “and” joins values, the source holds several entries; their conditions need not be identical. Equal values may be shown once.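 Results reflect a 48-hour exposure of cells in 96-well plates to compound at five concentrations. The concentration for 50% growth inhibition is given as GI50. TGI denotes the concentration required for complete inhibition of growth.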

Experiments:
Experiment in all cases: DTP human tumour cell line panel, 48 h
[1] = tested on: 786-0 renal
[2] = tested on: A549 NSCLC
[3] = tested on: ACHN renal
[4] = tested on: BT-549 breast
[5] = tested on: CAKI-1 renal
[6] = tested on: CCRF-CEM leukemia
[7] = tested on: COLO 205 colon
[8] = tested on: DU-145 prostate
[9] = tested on: EKVX NSCLC
[10] = tested on: HCC-2998 colon
[11] = tested on: HCT-116 colon
[12] = tested on: HCT-15 colon
[13] = tested on: HOP-92 NSCLC
[14] = tested on: HS 578T breast
[15] = tested on: HT29 colon
[16] = tested on: IGROV1 ovarian
[17] = tested on: K-562 leukemia
[18] = tested on: KM12 colon
[19] = tested on: LOX IMVI melanoma
[20] = tested on: M14 melanoma
[21] = tested on: MALME-3M melanoma
[22] = tested on: MCF7 breast
[23] = tested on: MDA-MB-231 breast
[24] = tested on: MDA-MB-435
[25] = tested on: MOLT-4 leukemia
[26] = tested on: NCI-H226 lung
[27] = tested on: NCI-H23 lung
[28] = tested on: NCI-H460 lung
[29] = tested on: OVCAR-5 ovarian
[30] = tested on: OVCAR-8 ovarian
[31] = tested on: PC-3 prostate
[32] = tested on: RPMI-8226 leukemia
[33] = tested on: RXF 393 renal
[34] = tested on: SF-268 CNS
[35] = tested on: SF-295 CNS
[36] = tested on: SF-539 CNS
[37] = tested on: SK-MEL-2 melanoma
[38] = tested on: SK-MEL-28 melanoma
[39] = tested on: SK-OV-3 ovarian
[40] = tested on: SN12C renal
[41] = tested on: SNB-19 CNS
[42] = tested on: SNB-75 CNS
[43] = tested on: SR leukemia
[44] = tested on: SW-620 colon
[45] = tested on: T-47D breast
[46] = tested on: TK-10 renal
[47] = tested on: U251 CNS
[48] = tested on: UACC-62 melanoma
[49] = tested on: UO-31 renal
[50] = tested on: A498 renal
[51] = tested on: HL-60(TB) leukemia
[52] = tested on: HOP-62 NSCLC
[53] = tested on: NCI-H522 lung
[54] = tested on: NCI/ADR-RES ovarian
[55] = tested on: OVCAR-3 ovarian
[56] = tested on: OVCAR-4 ovarian
[57] = tested on: SK-MEL-5 melanoma
[58] = tested on: UACC-257 melanoma

In the case of `O=[N+]([O-])c1ccc(O)c2ncccc12`, the TGI [1] is reported as > 100 µM and 11.6 µM, the TGI [2] is reported as > 100 µM and 12.9 µM and the GI50 [3] is reported as 42.5 µM and 4.81 µM. For the same compound, the TGI [3] was > 100 µM and 35.8 µM, the TGI [4] was > 100 µM and 24 µM and the TGI [5] was > 100 µM and 16.5 µM. For the same compound, the TGI [6] was greater than 100 µM, the TGI [7] was > 100 µM and 10.7 µM and the TGI [8] was > 100 µM and 15.2 µM. For the same compound, the TGI [9] was > 100 µM and 17.9 µM, the GI50 [10] was 5.21 µM and the TGI [10] was 18.5 µM. For the same compound, the TGI [11] was > 100 µM and 12.5 µM, the TGI [12] was > 100 µM and 18.8 µM and the GI50 [13] was 19.1 µM and 4.22 µM. The TGI [13] was 82.6 µM and 21.3 µM, the TGI [14] was greater than 100 µM and the TGI [15] was > 100 µM and 18.9 µM. For the same compound, the TGI [16] was > 100 µM and 13.8 µM, the TGI [17] was > 100 µM and 15.5 µM and the GI50 [18] was 3.92 µM and 4.31 µM. The TGI [18] was > 100 µM and 16.5 µM, the TGI [19] was > 100 µM and 13 µM and the TGI [20] was > 100 µM and 10.5 µM. For the same compound, the GI50 [21] was 3550 nM, the TGI [21] was 17.4 µM and the GI50 [22] was 23.1 µM and 3.39 µM. For the same compound, the TGI [22] was > 100 µM and 11.5 µM, the GI50 [23] was 38.4 µM and 4.4 µM and the TGI [23] was > 100 µM and 20.6 µM. The TGI [24] was > 100 µM and 15.2 µM, the TGI [25] was > 100 µM and 10.4 µM and the TGI [26] was > 100 µM and 18.6 µM. For the same compound, the TGI [27] was > 100 µM and 28.9 µM, the TGI [28] was > 100 µM and 11.4 µM and the TGI [29] was > 100 µM and 40.5 µM. The TGI [30] was > 100 µM and 19.1 µM, the GI50 [31] was 35.8 µM and 4.02 µM and the TGI [31] was greater than 100 µM. For the same compound, the TGI [32] was greater than 100 µM, the TGI [33] was > 100 µM and 18.2 µM and the TGI [34] was > 100 µM and 16 µM. The GI50 [35] was 22000 nM and 2280 nM, the TGI [35] was 82.4 µM and 13.1 µM and the TGI [36] was > 100 µM and 20.8 µM. For the same compound, the GI50 [37] was 4.06 µM, the TGI [37] was 19.3 µM and the TGI [38] was > 100 µM and 24.7 µM. For the same compound, the TGI [39] was > 100 µM and 15.7 µM, the TGI [40] was > 100 µM and 58.1 µM and the TGI [41] was > 100 µM and 32.6 µM. For the same compound, the TGI [42] was > 100 µM and 26 µM, the GI50 [43] was 3010 nM and the TGI [43] was 9.29 µM. For the same compound, the TGI [44] was > 100 µM and 18.6 µM, the GI50 [45] was 23 µM and 2.38 µM and the TGI [46] was > 100 µM and 30.3 µM. For the same compound, the TGI [47] was > 100 µM and 13.3 µM, the TGI [48] was > 100 µM and 11.6 µM and the GI50 [49] was 18.7 µM and 3.93 µM. The TGI [49] was > 100 µM and 20.8 µM.

`COc1ccc2sc3c(NCCCNCCO)nc4ccccc4c3c(=O)c2c1` was tested, and the GI50 [1] was 1380 nM, the TGI [1] was 2.82 µM and the GI50 [50] was 1490 nM. The TGI [50] was 2970 nM, the GI50 [2] was 1680 nM and the TGI [2] was 3.31 µM. For the same compound, the GI50 [3] was 1.63 µM, the TGI [3] was 2.99 µM and the GI50 [4] was 10.2 µM. It also gave a TGI [4] of 22.7 µM, a GI50 [5] of 1570 nM and a TGI [5] of 2.99 µM. It also gave a GI50 [6] of 1740 nM, a TGI [6] of 4.06 µM and a GI50 [7] of 1660 nM. The TGI [7] was 3.65 µM, the GI50 [8] was 1600 nM and the TGI [8] was 2.98 µM. It also gave a GI50 [9] of 1450 nM, a TGI [9] of 2.94 µM and a GI50 [10] of 1.68 µM. For the same compound, the TGI [10] was 3.29 µM, the GI50 [11] was 1590 nM and the TGI [11] was 3.03 µM. It also gave a GI50 [12] of 1450 nM, a TGI [12] of 2.87 µM and a GI50 [51] of 1980 nM. It also gave a TGI [51] of 3.89 µM, a GI50 [52] of 1590 nM and a TGI [52] of 3.26 µM. For the same compound, the GI50 [13] was 1.35 µM, the TGI [13] was 6.74 µM and the GI50 [14] was 1420 nM. For the same compound, the TGI [14] was 3.48 µM, the GI50 [15] was 1570 nM and the TGI [15] was 3.03 µM. The GI50 [16] was 1330 nM, the TGI [16] was 2.85 µM and the GI50 [17] was 1830 nM. For the same compound, the TGI [17] was 4.32 µM, the GI50 [18] was 1.62 µM and the TGI [18] was 3.12 µM. The GI50 [19] was 1570 nM, the TGI [19] was 3 µM and the GI50 [20] was 1820 nM. For the same compound, the TGI [20] was 3.48 µM, the GI50 [21] was 1690 nM and the TGI [21] was 3.26 µM. It also gave a GI50 [22] of 1.54 µM, a TGI [22] of 3.1 µM and a GI50 [23] of 1.48 µM. For the same compound, the TGI [23] was 2.95 µM, the GI50 [24] was 1610 nM and the TGI [24] was 3.01 µM. It also gave a GI50 [25] of 1930 nM, a TGI [25] of 3.81 µM and a GI50 [26] of 2090 nM. It also gave a TGI [26] of 3.75 µM, a GI50 [27] of 1730 nM and a TGI [27] of 3.27 µM. It also gave a GI50 [28] of 1510 nM, a TGI [28] of 2.96 µM and a GI50 [53] of 1740 nM. It also gave a TGI [53] of 3.37 µM, a GI50 [54] of 1760 nM and a TGI [54] of 3.53 µM. It also gave a GI50 [55] of 1740 nM, a TGI [55] of 3.21 µM and a GI50 [56] of 1940 nM. The TGI [56] was 4.09 µM, the GI50 [29] was 1600 nM and the TGI [29] was 3.05 µM. For the same compound, the GI50 [30] was 1650 nM, the TGI [30] was 3.45 µM and the GI50 [31] was 1.58 µM. It also gave a TGI [31] of 3.1 µM, a GI50 [32] of 1710 nM and a TGI [32] of 3.86 µM. The GI50 [33] was 1310 nM, the TGI [33] was 2.7 µM and the GI50 [34] was 1520 nM. For the same compound, the TGI [34] was 3.16 µM, the GI50 [35] was 1730 nM and the TGI [35] was 3.15 µM. For the same compound, the GI50 [36] was 1650 nM, the TGI [36] was 3.1 µM and the GI50 [37] was 2.08 µM. For the same compound, the TGI [37] was 4.07 µM, the GI50 [38] was 1800 nM and the TGI [38] was 3.27 µM. It also gave a GI50 [57] of 1760 nM, a TGI [57] of 3.18 µM and a GI50 [40] of 1600 nM. It also gave a TGI [40] of 3.12 µM, a GI50 [41] of 1650 nM and a TGI [41] of 3.15 µM. The GI50 [42] was 1820 nM, the TGI [42] was 3.34 µM and the GI50 [43] was 1970 nM. It also gave a TGI [43] of 5.61 µM, a GI50 [44] of 1610 nM and a TGI [44] of 3.13 µM. It also gave a GI50 [46] of 1830 nM, a TGI [46] of 3.38 µM and a GI50 [47] of 1600 nM. The TGI [47] was 3.16 µM, the GI50 [58] was 1930 nM and the TGI [58] was 3.99 µM. It also gave a GI50 [48] of 1700 nM, a TGI [48] of 3.16 µM and a GI50 [49] of 1.56 µM. It also gave a TGI [49] of 2.99 µM.
